Test results published in ChEMBL document CHEMBL3885861, “Open TG-GATES”.

Species: Rattus norvegicus
Assay: Open TG-GATES - Regimen: Single
Format: toxicity, organism-based, Sprague-Dawley
Design: regimen Single, gender Male, age 6 weeks
Conditions: in vivo, iv, route intravenous injection; for MCV / Mono / Neu / PT / Plat / RBC / Ret / WBC / APTT / Bas / Eos / Fbg / Ht / Lym / Hb / MCH / MCHC: tissue Blood; for KIDNEY_L / KIDNEY_R / KIDNEY_TOTAL: tissue Kidney; for LIVER: tissue Liver
[1] = 30 mg/kg, 3 h, dose level Middle
[2] = 30 mg/kg, 3 h, tissue Plasma, dose level Middle
[3] = 30 mg/kg, 6 h, dose level Middle
[4] = 30 mg/kg, 6 h, tissue Plasma, dose level Middle
[5] = 30 mg/kg, 9 h, dose level Middle
[6] = 30 mg/kg, 9 h, tissue Plasma, dose level Middle
[7] = 30 mg/kg, 24 h, dose level Middle
[8] = 30 mg/kg, 24 h, tissue Plasma, dose level Middle
[9] = 100 mg/kg, 3 h, dose level High
[10] = 100 mg/kg, 3 h, tissue Plasma, dose level High
[11] = 100 mg/kg, 6 h, dose level High
[12] = 100 mg/kg, 6 h, tissue Plasma, dose level High
[13] = 100 mg/kg, 9 h, dose level High
[14] = 100 mg/kg, 9 h, tissue Plasma, dose level High
[15] = 100 mg/kg, 24 h, dose level High
[16] = 100 mg/kg, 24 h, tissue Plasma, dose level High

GENTAMICIN
MCV [1]: 62.9 fL | Mono [1]: 3.2% | Neu [1]: 16.4% | PT [1]: 16.2 s | Plat [1]: 131.2 x10_4/uL | RBC [1]: 626.2 x10_4/ul | Ret [1]: 6.5% | WBC [1]: 81.8 x10_2/uL | KIDNEY_L [1]: 0.9 g | KIDNEY_R [1]: 0.9 g | KIDNEY_TOTAL [1]: 1.8 g | LIVER [1]: 9.6 g | ALT [2]: 42.6 IU/L | AST [2]: 82.2 IU/L | CRE [2]: 0.1 mg/dL | DBIL [2]: 0.004 mg/dL | GLC [2]: 182 mg/dL | IP [2]: 8.1 mg/dL | K [2]: 4.3 meq/L | LDH [2]: 251.4 IU/L | PL [2]: 133.2 mg/dL | RALB [2]: 2.9 g/dL | TBIL [2]: 0.02 mg/dL | TC [2]: 62.4 mg/dL | TG [2]: 99.2 mg/dL | TP [2]: 5.3 g/dL | gamma-GTP [2]: 1.4 IU/L | TERMINAL_BW [3]: 210.3 g | APTT [3]: 23.2 s | Bas [3]: 0% | Eos [3]: 0.4% | Fbg [3]: 291.6 mg/dL | Ht [3]: 39.5% | Lym [3]: 77.6% | MCV [3]: 62 fL | Mono [3]: 3.4% | PT [3]: 16 s | Plat [3]: 119.1 x10_4/uL | RBC [3]: 636.4 x10_4/ul | Ret [3]: 6.3% | WBC [3]: 117 x10_2/uL | KIDNEY_L [3]: 0.9 g | KIDNEY_R [3]: 1 g | KIDNEY_TOTAL [3]: 1.9 g | LIVER [3]: 8.7 g | ALP [4]: 1316 IU/L | ALT [4]: 35 IU/L | AST [4]: 68.8 IU/L | BUN [4]: 9.4 mg/dL | CRE [4]: 0.1 mg/dL | DBIL [4]: 0.002 mg/dL | GLC [4]: 177.2 mg/dL | IP [4]: 9 mg/dL | K [4]: 4.3 meq/L | PL [4]: 139.4 mg/dL | RALB [4]: 3 g/dL | TBIL [4]: 0.024 mg/dL | TC [4]: 74.6 mg/dL | TG [4]: 84.4 mg/dL | TP [4]: 5.3 g/dL | gamma-GTP [4]: 1 IU/L | TERMINAL_BW [5]: 213 g | APTT [5]: 24 s | Bas [5]: 0% | Eos [5]: 1% | Fbg [5]: 294.6 mg/dL | Hb [5]: 13 g/dL | Ht [5]: 38.6% | Lym [5]: 77.4% | MCH [5]: 21 pg | MCHC [5]: 33.6% | Mono [5]: 3% | Neu [5]: 17.2% | PT [5]: 16.2 s | Plat [5]: 122.8 x10_4/uL | RBC [5]: 617.4 x10_4/ul | Ret [5]: 5.8% | WBC [5]: 109.5 x10_2/uL | KIDNEY_L [5]: 1 g | KIDNEY_R [5]: 1 g | KIDNEY_TOTAL [5]: 2 g | LIVER [5]: 8.5 g | ALP [6]: 1266.6 IU/L | ALT [6]: 34.4 IU/L | AST [6]: 72 IU/L | BUN [6]: 10.8 mg/dL | CRE [6]: 0.1 mg/dL | DBIL [6]: 0.002 mg/dL | GLC [6]: 175.2 mg/dL | IP [6]: 9.5 mg/dL | K [6]: 4.4 meq/L | LDH [6]: 134.6 IU/L | Na [6]: 144.2 meq/L | PL [6]: 134.2 mg/dL | RALB [6]: 2.9 g/dL | TBIL [6]: 0.022 mg/dL | TC [6]: 73.8 mg/dL | TG [6]: 49.4 mg/dL | TP [6]: 5.2 g/dL | gamma-GTP [6]: 1.6 IU/L | TERMINAL_BW [7]: 228.1 g | APTT [7]: 22.7 s | Bas [7]: 0% | Eos [7]: 0.8% | Fbg [7]: 295.4 mg/dL | Hb [7]: 12.9 g/dL | Ht [7]: 38% | Lym [7]: 76.6% | MCHC [7]: 34% | MCV [7]: 61.3 fL | Mono [7]: 4% | Neu [7]: 18% | PT [7]: 16.4 s | Plat [7]: 115.7 x10_4/uL | RBC [7]: 621.4 x10_4/ul | Ret [7]: 6% | WBC [7]: 112.3 x10_2/uL | KIDNEY_L [7]: 1 g | KIDNEY_R [7]: 1 g | KIDNEY_TOTAL [7]: 2 g | LIVER [7]: 10.2 g | ALP [8]: 1367.4 IU/L | ALT [8]: 41.4 IU/L | BUN [8]: 15.6 mg/dL | CRE [8]: 0.2 mg/dL | DBIL [8]: 0.004 mg/dL | IP [8]: 7.2 mg/dL | K [8]: 4.1 meq/L | LDH [8]: 137.2 IU/L | PL [8]: 153.2 mg/dL | RALB [8]: 3 g/dL | TBIL [8]: 0.02 mg/dL | TC [8]: 81.4 mg/dL | TG [8]: 101.6 mg/dL | TP [8]: 5.4 g/dL | gamma-GTP [8]: 1 IU/L | TERMINAL_BW [9]: 221.2 g | APTT [9]: 22.7 s | Bas [9]: 0% | Eos [9]: 1% | Fbg [9]: 284 mg/dL | Ht [9]: 37.3% | Lym [9]: 72% | MCV [9]: 63.9 fL | Mono [9]: 3% | Neu [9]: 23.3% | Plat [9]: 123.5 x10_4/uL | RBC [9]: 584 x10_4/ul | Ret [9]: 6.4% | WBC [9]: 86 x10_2/uL | KIDNEY_L [9]: 1 g | KIDNEY_R [9]: 1 g | KIDNEY_TOTAL [9]: 1.9 g | LIVER [9]: 9.9 g | ALP [10]: 1392.3 IU/L | ALT [10]: 41.3 IU/L | AST [10]: 82.7 IU/L | BUN [10]: 13 mg/dL | CRE [10]: 0.1 mg/dL | Ca [10]: 11 mg/dL | DBIL [10]: 0.0067 mg/dL | GLC [10]: 177.3 mg/dL | IP [10]: 7.9 mg/dL | K [10]: 4.1 meq/L | LDH [10]: 155.3 IU/L | PL [10]: 129.7 mg/dL | RALB [10]: 2.8 g/dL | TBIL [10]: 0.03 mg/dL | TC [10]: 69.3 mg/dL | TG [10]: 71.7 mg/dL | TP [10]: 5.2 g/dL | gamma-GTP [10]: 1 IU/L | TERMINAL_BW [11]: 211.7 g | APTT [11]: 24.2 s | Bas [11]: 0% | Eos [11]: 0.8% | Fbg [11]: 292 mg/dL | Ht [11]: 39.4% | Lym [11]: 74.2% | MCH [11]: 21 pg | MCHC [11]: 33.9% | MCV [11]: 61.9 fL | Mono [11]: 3.6% | Neu [11]: 20.6% | PT [11]: 15.9 s | Plat [11]: 126.2 x10_4/uL | RBC [11]: 637 x10_4/ul | Ret [11]: 6.6% | WBC [11]: 92.6 x10_2/uL | KIDNEY_L [11]: 0.9 g | KIDNEY_R [11]: 0.9 g | KIDNEY_TOTAL [11]: 1.8 g | LIVER [11]: 8.4 g | ALP [12]: 1407.2 IU/L | ALT [12]: 34.8 IU/L | AST [12]: 67.6 IU/L | CRE [12]: 0.1 mg/dL | DBIL [12]: 0.004 mg/dL | GLC [12]: 176.2 mg/dL | IP [12]: 9 mg/dL | K [12]: 4.7 meq/L | LDH [12]: 165.8 IU/L | PL [12]: 144.4 mg/dL | RALB [12]: 2.9 g/dL | TBIL [12]: 0.02 mg/dL | TG [12]: 98.6 mg/dL | TP [12]: 5.2 g/dL | gamma-GTP [12]: 1.2 IU/L | TERMINAL_BW [13]: 211.4 g | APTT [13]: 22.4 s | Bas [13]: 0% | Eos [13]: 0.8% | Fbg [13]: 296.4 mg/dL | Hb [13]: 12.9 g/dL | Ht [13]: 38.7% | Lym [13]: 80.6% | MCH [13]: 20.6 pg | MCHC [13]: 33.3% | MCV [13]: 61.9 fL | Mono [13]: 3.2% | Plat [13]: 120.1 x10_4/uL | RBC [13]: 625.2 x10_4/ul | Ret [13]: 6.4% | WBC [13]: 76.1 x10_2/uL | KIDNEY_L [13]: 0.9 g | KIDNEY_R [13]: 1 g | KIDNEY_TOTAL [13]: 1.9 g | LIVER [13]: 8.6 g | ALP [14]: 1221 IU/L | ALT [14]: 30.8 IU/L | AST [14]: 65.6 IU/L | BUN [14]: 12.8 mg/dL | CRE [14]: 0.1 mg/dL | Ca [14]: 11 mg/dL | DBIL [14]: 0.002 mg/dL | GLC [14]: 174.6 mg/dL | IP [14]: 9.4 mg/dL | K [14]: 4.7 meq/L | LDH [14]: 145.2 IU/L | PL [14]: 144 mg/dL | RALB [14]: 2.9 g/dL | TBIL [14]: 0.016 mg/dL | TC [14]: 77 mg/dL | TG [14]: 70.4 mg/dL | TP [14]: 5.3 g/dL | gamma-GTP [14]: 1 IU/L | TERMINAL_BW [15]: 225.5 g | APTT [15]: 23.2 s | Bas [15]: 0% | Eos [15]: 1% | Fbg [15]: 301.2 mg/dL | Hb [15]: 13.6 g/dL | Ht [15]: 39.5% | Lym [15]: 77.4% | MCHC [15]: 34.4% | MCV [15]: 60.8 fL | Mono [15]: 4.8% | PT [15]: 16.4 s | Plat [15]: 122.8 x10_4/uL | RBC [15]: 649.4 x10_4/ul | Ret [15]: 5.4% | WBC [15]: 96.8 x10_2/uL | KIDNEY_L [15]: 1 g | KIDNEY_R [15]: 1 g | KIDNEY_TOTAL [15]: 2 g | LIVER [15]: 9.6 g | ALP [16]: 1293.2 IU/L | ALT [16]: 37.8 IU/L | AST [16]: 66.4 IU/L | CRE [16]: 0.1 mg/dL | DBIL [16]: 0.002 mg/dL | GLC [16]: 186.4 mg/dL | IP [16]: 7.7 mg/dL | K [16]: 4.2 meq/L | LDH [16]: 159.2 IU/L | PL [16]: 162.4 mg/dL | RALB [16]: 3.1 g/dL | TBIL [16]: 0.018 mg/dL | TC [16]: 82.4 mg/dL | TG [16]: 110.2 mg/dL | TP [16]: 5.5 g/dL | gamma-GTP [16]: 1.2 IU/L
